Measurements from article PMC7190830, “Neuromedin U signaling regulates retrieval of learned salt avoidance in a C. elegans gustatory circuit” (Nature Communications, 2020).
Where “and” joins values, the source holds several entries; their conditions need not be identical. Identical values can stand only once. Like-named read-outs stand apart in the source and are kept apart here. No end group written: not given here.

How the values were obtained:
C. elegans = assay: Optogenetic silencing of ASG during conditioning or navigation of a 0-50 mM NaCl gradient; assay type: in vivo; conditions: ATR, single replicates
Source text: From left to right n = 51, 59, 43, 44 animals per condition. […] (bottom panel). Scale bar, 20 µm. f Optogenetic silencing of ASG. Individual worms are illuminated with yellow–green light for silencing CAPA-1 neurons during conditioning (acquisition phase) or during the NaCl chemotaxis assay when worms are navigating a linear NaCl gradient (retrieval phase) (see Methods for details). Arch requires supplementation of the cofactor all-trans retinal (ATR) to the worm culture. Transgenic C. elegans not fed ATR-supplemented food serve as a negative control. After conditioning, worms are put in the middle of a chemotaxis plate with a linear NaCl gradient (0–50 mM) and kept in the field-of-view using an automated xy-stage. […] Corresponding biased random walk and klinotaxis indices shown in Supplementary Fig. 10a, b. The time interval for statistical comparison was reduced to 5 min to accommodate the small plate format. g, h From left to right n = 10, 12, 14, 14, 12, 12, 14, 11 animals per condition. Shaded regions on a and g represent S.E.M. while black bars indicate the time interval for calculating the mean gradient position and behavioral indices. Significances determined by two-way ANOVA with Tukey’s HSD post hoc test. n.s. not significant; *p ≤ 0.05; **p ≤ 0.01; ***p ≤ 0.001. Boxplots show medians, 25th and 75th percentiles as box limits. The whiskers extend to the most extreme data points not considered as outlier.
Transgenic worms expressing the outward-directed proton pump Arch in ASG were cultured at 25 °C on culture plates seeded with sufficient OP50 E. coli. One day before the assay, transgenic worms were transferred to OP50 culture plates to which all-trans retinal (ATR, Sigma Aldrich) has been added (300 µM final concentration in fresh OP50 liquid culture). This cofactor is needed for Arch activity, and allows transgenic worms transferred to culture plates without ATR to serve as negative control. A 0 to 50 mM linear gradient was generated in a 55 mm Petri plate. First, 15 mL buffered CTX agar supplemented with 50 mM NaCl was poured in a 55 mm diameter Petri dish elevated to one side. An additional 15.5 mL buffered CTX agar without NaCl was poured on top of the first triangular wedge once it solidified. NaCl was allowed to diffuse at least 24 h prior the assay. Individual worms were washed for 15 min in a small volume of CTX buffer with or without 100 mM NaCl (NaCl-conditioning or mock-conditioning). After conditioning the worm was transferred to the center of the 0 to 50 mM NaCl gradient plate, mounted on a Zeiss AxioObserver Z1 microscope. The animal was then allowed to navigate the plate for 10 min while an automated xy-stage kept it in the field-of-view. […] Each animal’s path was reconstructed based on the recorded low-resolution video-stream and the logged stage positions. The behavior was then segmented and indices reflecting chemotaxis behavior were calculated as described above.
Supplementary Fig. 10. Behavioral effects of silencing CAPA-1 neurons (related to Fig. 7) The inhibitory opsin Arch is expressed in ASG under control of the capa-1 promoter. Individual transgenic worms are illuminated with yellow-green light for ASG silencing while being conditioned, or when they are navigating an agar plates with a 0 to 50 mM NaCl linear gradient (a-b) or no gradient (c-d). Arch requires the cofactor all-trans retinal (ATR) to be supplemented to the worm culture.
Transgenic C. elegans not fed ATR-supplemented food serve as a negative control. See Methods for details. (a) Biased random walk and (b) klinotaxis indices for mock- and NaCl-conditioned animals navigating a 0 to 50 mM NaCl gradient. (a-b) From left to right n = 10, 12, 14, 14, 12, 12, 14, 11 animals per condition. (c) Mean speed of individual worms and (d) the fraction of time in each behavioral state when worms are navigating a plate without NaCl. From left to right n = 7, 7, 7, 7, 7, 7, 5, 7 animals per

NMUR-1 = biological target: T1, NMUR-1 (Caenorhabditis elegans, UniProt Q18701); assay: Luminescence-based (aequorin) calcium mobilization assay for GPCR activation, NMUR-1 expressed in CHO cells; assay type: cell-based; conditions: calcium response, aequorin luminescence 496 nm, 30 s, CHO K1 cells stably overexpressing apo-aequorin and human Gα16, transiently transfected nmur-1/pcDNA3.1, 0.1 nM to 100 µM, HPLC-purified peptides, read-out: EC50 (half maximal effective concentration) to activate NMUR-1
T1 sequence (Q18701 1-400): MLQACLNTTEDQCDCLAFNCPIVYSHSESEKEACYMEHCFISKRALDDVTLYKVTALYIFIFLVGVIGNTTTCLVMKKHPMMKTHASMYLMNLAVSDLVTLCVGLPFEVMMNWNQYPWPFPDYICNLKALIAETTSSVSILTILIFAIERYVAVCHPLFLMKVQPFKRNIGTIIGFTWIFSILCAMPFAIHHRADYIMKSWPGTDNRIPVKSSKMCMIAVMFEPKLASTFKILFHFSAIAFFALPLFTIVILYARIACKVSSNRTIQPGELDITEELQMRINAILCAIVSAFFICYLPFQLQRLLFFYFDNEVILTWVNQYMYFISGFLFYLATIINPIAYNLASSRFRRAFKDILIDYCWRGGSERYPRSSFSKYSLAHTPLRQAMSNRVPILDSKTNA
Source text: Cells transfected with an empty pcDNA3.1 vector are used as a control. Error bars show S.E.M. CAPA-1-1 n = 6; CAPA-1-2 n = 6; CAPA-1-3 n = 5 experimental repeats. c The […] encodes a neuropeptide precursor that harbors three predicted peptide sequences (CAPA-1-1, -2, and -3), which are flanked by mono- and dibasic cleaving sites. Black bars indicate the positions of deletions in […]-44 mutant alleles used in this study. d Sequence comparison of C. elegans CAPA-1 neuropeptides and NmU neuropeptides from H. sapiens, D. rerio, and D. melanogaster. Conserved C-terminal features are highlighted in black. Residues with similar physicochemical properties are colored gray.

[1] = NaCl-conditioned, Time Window Silencing: Navi - Retrieval
[2] = NaCl-conditioned, Time Window Silencing: Wash - conditioning
[3] = mock-conditioned, Time Window Silencing: Navi - Retrieval
[4] = mock-conditioned, Time Window Silencing: Wash - conditioning
[5] = CAPA-1-1 n = 6, CAPA-1-3 n = 5 experimental repeats

CC1=C(/C=C/C(C)=C/C=C/C(C)=C/C=O)C(C)(C)CCC1 [ATR]
Fraction of time in Pause (C. elegans; [1]): 0 | Fraction of time in Run (C. elegans; [1]): 0.741 and 0.8212 and 0.8921 and 0.8348 and 0.9414 and 0.927 and 0.8623 | Fraction of time in Turn (C. elegans; [1]): 0.1151 and 0.03803 and 0.0668 and 0.04464 and 0.02467 and 0.01439 | Fraction of time in Pause (C. elegans; [2]): 0 | Fraction of time in Pirouette (C. elegans; [2]): 0.1562 and 0.1901 and 0.02158 and 0.1641 and 0.1069 and 0 and 0.05344 | Fraction of time in Run (C. elegans; [2]): 0.7451 and 0.7688 and 0.9609 and 0.8359 and 0.888 and 0.9702 and 0.8828 | Fraction of time in Turn (C. elegans; [2]): 0.09866 and 0.04111 and 0.01747 and 0 and 0.005139 and 0.0298 and 0.06372 | Fraction of time in Pirouette (C. elegans; NaCl, Time Window Silencing: Navi - Retrieval): 0.1439 and 0.1408 and 0.04111 and 0.1205 and 0.03392 and 0.0483 and 0.1233 | Fraction of time in Pause (C. elegans; [3]): 0 | Fraction of time in Pirouette (C. elegans; [3]): 0.1326 and 0.1912 and 0.112 and 0.1439 and 0.1819 and 0.2179 and 0.1771 | Fraction of time in Run (C. elegans; [3]): 0.7564 and 0.7081 and 0.7595 and 0.8171 and 0.6516 and 0.7513 and 0.7264 | Fraction of time in Turn (C. elegans; [3]): 0.111 and 0.1007 and 0.1285 and 0.03905 and 0.1665 and 0.03083 and 0.0965 | Fraction of time in Pause (C. elegans; [4]): 0 | Fraction of time in Pirouette (C. elegans; [4]): 0.3217 and 0.03289 and 0 and 0.6616 and 0.1079 and 0.1788 and 0.04317 | Fraction of time in Run (C. elegans; [4]): 0.6208 and 0.8756 and 0.9106 and 0.3384 and 0.8016 and 0.8068 and 0.9085 | Fraction of time in Turn (C. elegans; [4]): 0.05755 and 0.09147 and 0.08941 and 0 and 0.09044 and 0.01439 and 0.0483

AFFYTPRI-NH2 [CAPA-1-3]
EC50 (NMUR-1; [5]): 0.142 µM

APHPSSALLVPYPRV-NH2 [CAPA-1-1]
EC50 (NMUR-1; [5]): 0.006 µM

LYMARV-NH2 [CAPA-1-2]
EC50 (NMUR-1; CAPA-1-2 n = 6 experimental repeats): 8 µM
